{"source": "patent US20050032713A1", "about": "“Platelet-activating factor antagonists as analgesic, anti-inflammatory, uterine contraction inhibiting, and anti-tumor agents” (priority 2002, published 2005)", "assay_type_in_all_cases": "cell-based, rat", "key": {"[1]": {"tested_on": "primary cortical astrocytes", "test": "Effect of COX inhibitors on mc-PAF-induced PGE2 release from primary astrocytes (Example 3)", "description": "Mc-PAF (Cayman Chemical, Ann Arbor, Mich.) was dissolved in ethanol at a stock concentration of 10 mM. Indomethacin, piroxicam, NS-398 (Biomol; Plymouth Meeting, Mass.), and SC-560 (Cayman Chemical) were dissolved in 45% hydroxy-β-cyclodextrin (HBC; Sigma, St. Louis, Mo.). Cells were serum-deprived for 24 hrs prior to experimental treatments to induce quiescence. Where treatment with inhibitors is indicated, these compounds were added 30 min prior to the addition of mc-PAF.\nDirect assay of the PGE2 concentration in cell-conditioned medium was used as an index of PGE2 secretion by primary astrocytes. PGE2 levels were measured by ELISA according to manufacturer's instructions (Cayman Chemicals, Ann Arbor, Mich.), as described.\nResults were derived from at least 3 separate experiments, assayed in duplicate or triplicate (n=6−8). Data were expressed as means+/−SEMs. Statistical analyses were performed using ANOVAs for comparisons between groups, followed by Fischer's PLSD post hoc comparisons by means contrast. p values <0.05 were considered statistically significant."}, "[2]": {"tested_on": "astrocyte-enriched cortical cell cultures", "test": "PGE2 release (ELISA) from astrocyte-enriched cortical cell cultures exposed to PAF analogs, related lipids or AA", "conditions": "for PGE2 release into the conditioned media: various concentrations; for concentration giving peak PGE2 release: higher and lower concentrations elicited less release", "description": "(§1) All experimental protocols were approved by the Massachusetts Institute of Technology institutional review committee and meet the guidelines of the National Institutes of Health. Dissociated astrocytes were cultured from cortices of postnatal day 1-2 rat pups (as described by K. D. McCarthy, et al., Preparation of separate astroglial and oligodendroglial cell cultures from rat cerebral tissue, J. Cell Biol. 85 (1980) 890-902, with minor modifications R. K. K. Lee, et al., Metabolic glutamate receptors increase amyloid precursor protein processing in astrocytes: inhibition by cyclic AMP, J. Neurochem. 68 (1997) 1830-1835.) In brief, cells from dissociated cortices were plated onto poly-L-lysine coated 35- or 100 mm culture dishes. The initial culture media, minimal essential medium (MEM, Gibco-Life Technologies; Rockville, Md.) containing 15% horse serum (BioWhittaker; Walkersville, Md.), were aspirated 2-5 h after plating to remove unattached cells and debris, and replaced with MEM containing 5% fetal bovine serum (FBS, BioWhittaker; Walkersville, Md.). Half the medium was replaced with MEM/5% FBS twice weekly. Astrocytes were kept at 37° C. in a humidified 5% CO2/95% air incubator for 9-15 days, by which time the cultures were confluent and could be used for experiments.\n(§2) Mc-PAF (Biomol; Plymouth Meeting, PA) was dissolved in methanol at a stock concentration of 10 mM. PAF-16, PAF-18, lyso-PAF, AA (Cayman Chemicals), lyso-PC and PC (Sigma) were dissolved in ethanol at stock concentrations of 10 mM. All stock solutions of lipids were stored at −80° C. and were used within 6 weeks of reconstitution. BN 52021 and CV 6209 (Biomol) were dissolved in ethanol. These PAF antagonists were stored at −20° C. in stock concentrations of 100 mM. BN 50730 (Biomeasure; Milford, Mass.) was dissolved in 45% hydroxy-B-cyclodextrin (HBC). All agents were diluted in warned serum-free medium prior to cell stimulation. Equal amounts of vehicle was added to control cells.\n(§3) Cells used for all experiments were established in vitro 9-15 days prior to use in experiments and were over 95% confluent. Serum-containing media were changed every 3-4 days. Cells were serum-deprived 24 hours prior to experimental treatments. Where treatment with PAF antagonists is indicated, these compounds were added 30 minutes prior to the addition of other agents.\n(§4) PGE2 levels were measured by ELISA according to manufacturer's instructions (Cayman Chemicals, Ann Arbor, Mich.). Since the amount of PGE2 in fresh medium was negligible, (J. Luo, et al., Transforming growth factor B1 regulates the expression of cyclooxygenase in cultured cortical astrocytes and neurons, J. Neurochem. 71 (1998) 526-534), direct assays of the PGE2 concentration in cell-conditioned medium was used as a measurement of PGE2 secretion by cultured cells. Results were derived from at least 3 separate experiments, assayed in duplicate or triplicate (n=6-8). The reliable detection limit of this assay (i.e. sensitivity) averaged 14+/−6 pg of PGE2."}, "[3]": {"tested_on": "astrocyte-enriched cortical cell cultures", "test": "Effect of PAF antagonists on mc-PAF-, lyso-PAF- and AA-induced PGE2 release from astrocytes", "conditions": "for mc-PAF-induced PGE2 release: antagonist added 30 min before mc-PAF (1 μM), 30 min, BN 50730 0.1-100 μM, BN 52021 and CV 6209 1-50 μM; for PGE2 release, antagonist administered alone: no mc-PAF", "description": "as §1, §2, §3, §4"}, "[4]": {"conditions": "pre-treatment, actinomycin D 5 μg/ml, cyclohexamide 10 μg/ml, data not shown"}, "[5]": {"conditions": "various inhibitor concentrations (indomethacin 1, 10, and 50 μM), 30 min prior to mc-PAF (0.1 uM) for 30 min"}, "[6]": {"conditions": "10, 1, 0.1, and 0.01 μM, 30 min"}}, "note": "“Also recorded” adds a separate entry of the source. *1 amine or outer side, *2 acyl side, *3 side chain or, on linkers, in order; H or OH if unused. Where a SMILES comes first, the peptide text is derived from it. Bridges are numbered along the chain shown (N, C = ends). Roman numbers before positions name the chains, in order. [ ]: non-standard residue; d: D form. Actinocin(9to1) = Cc1c2oc3c(C)ccc(C(=O)[*:1])c3nc-2c(C(=O)[*:2])c(N)c1=O; NMeV = CN[C@H](C(=O)O)C(C)C; Sar = CNCC(=O)O"}
{"compound": "C[C@@H]1C[C@@H]([C@H](O)CC2CC(=O)NC(=O)C2)C(=O)[C@@H](C)C1", "note": "[cyclohexamide]", "values": [{"measurement": "mc-PAF-induced PGE2 release", "setting": "[1]; [4]", "result": "had no effect"}]}
{"compound": "CS(=O)(=O)Nc1ccc([N+](=O)[O-])cc1OC1CCCCC1", "note": "[NS-398]", "values": [{"measurement": "basal PGE2 release", "setting": "[1]; NS-398 highest concentrations, 10 and 50 μM", "result": "prevented basal PGE2 release"}, {"measurement": "mc-PAF-induced PGE2 release", "setting": "[1]; [5]", "result": "completely abolished; also recorded: completely blocked"}]}
{"compound": "COc1ccc(-n2nc(C(F)(F)F)cc2-c2ccc(Cl)cc2)cc1", "note": "[SC-560]", "values": [{"measurement": "mc-PAF-induced PGE2 release", "setting": "[1]; [5]", "result": "did not significantly influence; also recorded: did not significantly do so; also recorded: minimal influence"}]}
{"compound": "CCCCCCCCCCCCCCCCOC[C@H](COP(=O)([O-])OCC[N+](C)(C)C)OC(C)=O", "note": "[PAF-16]", "values": [{"measurement": "PGE2 release into the conditioned media", "setting": "[2]; 30 min, 37° C.", "result": "concentration-dependent increases"}, {"measurement": "concentration giving peak PGE2 release", "setting": "[2]; 30 min", "result": 0.1, "unit": "µM"}]}
{"compound": "CCCCCCCCCCCCCCCCOC[C@@H](O)COP(=O)([O-])OCC[N+](C)(C)C", "note": "[lyso-PAF]", "values": [{"measurement": "concentration at which PGE2 release was significantly increased", "setting": "[2]; 30 min, 37° C.", "result": 10, "unit": "µM"}, {"measurement": "PGE2 release into the conditioned media", "setting": "[2]; 30 min, 37° C.", "result": "concentration-dependent increases"}]}
{"compound": "CCCCCCCCCCCCCCCCCCNC(=O)OCC(COC(=O)N(Cc1cccc[n+]1CC)C(C)=O)OC", "note": "(stereo not drawn) [CV 6209]", "values": [{"measurement": "mc-PAF-induced PGE2 release", "setting": "[3]", "result": "no significant effect; also recorded: do not attenuate"}, {"measurement": "mc-PAF-induced PGE2 release", "setting": "[3]; listed as CV-6209", "result": "did not significantly influence"}, {"measurement": "AA-induced PGE2 release", "setting": "[3]; antagonist added 30 min prior", "result": "had no effect"}, {"measurement": "lyso-PAF-induced PGE2 release", "setting": "[3]; antagonist added 30 min prior", "result": "had no effect"}, {"measurement": "PGE2 release, antagonist administered alone", "setting": "[3]", "result": "PGE2 release was increased"}, {"measurement": "PGE2 release, antagonist administered alone", "setting": "[3]; listed as CV-6209", "result": "increased PGE2 release"}]}
{"compound": "Cc1c2oc3c(C)ccc(C(=O)N[C@@H]4C(=O)N[C@H](C(C)C)C(=O)N5CCC[C@H]5C(=O)N(C)CC(=O)N(C)[C@@H](C(C)C)C(=O)O[C@@H]4C)c3nc-2c(C(=O)N[C@@H]2C(=O)N[C@H](C(C)C)C(=O)N3CCC[C@H]3C(=O)N(C)CC(=O)N(C)[C@@H](C(C)C)C(=O)O[C@@H]2C)c(N)c1=O", "note": "[actinomycin D] (I: T[dV]P[Sar][NMeV] / II: T[dV]P[Sar][NMeV]; ester I:1-I:C, II:1-II:C; linker I:N-II:N via Actinocin(9to1))", "values": [{"measurement": "mc-PAF-induced PGE2 release", "setting": "[1]; [4]", "result": "had no effect"}]}
{"compound": "COc1ccc2c(c1)c(CC(=O)O)c(C)n2C(=O)c1ccc(Cl)cc1", "note": "[indomethacin]", "values": [{"measurement": "basal PGE2 release", "setting": "[1]; indomethacin 1, 10, and 50 μM", "result": "without affecting basal PGE2 release"}, {"measurement": "mc-PAF-induced PGE2 release", "setting": "[1]; [5]", "result": "attenuated; also recorded: completely blocked"}]}
{"compound": "CCCCC/C=C\\C/C=C\\C/C=C\\C/C=C\\CCCC(=O)O", "note": "[AA, arachidonic acid]", "values": [{"measurement": "PGE2 release", "setting": "[2]; AA 0.01-10 μM, 30 minutes", "result": "increased PGE2 release"}, {"measurement": "PGE2 release on co-administration with mc-PAF", "setting": "[2]; high AA concentration 10 μM with mc-PAF, 30 min", "result": "no synergism"}, {"measurement": "PGE2 release on co-administration with mc-PAF", "setting": "[2]; low AA concentration 0.01 μM with mc-PAF (0.1, 1 or 10 μM), 30 min", "result": "additive increase"}]}
{"compound": "CN1C(C(=O)Nc2ccccn2)=C(O)c2ccccc2S1(=O)=O", "note": "[piroxicam]", "values": [{"measurement": "mc-PAF-induced PGE2 release", "setting": "[1]; piroxicam 50 μM, effect not statistically significant", "result": "attenuated some of this PGE2 release"}, {"measurement": "mc-PAF-induced PGE2 release", "setting": "[1]; piroxicam 1 or 10 μM, 30 min prior to mc-PAF (0.1 uM)", "result": "had no effect"}, {"measurement": "mc-PAF-induced PGE2 release", "setting": "[1]; [5]", "result": "did not significantly do so; also recorded: minimal influence"}]}
{"compound": "lyso-phosphatidylcholine [lyso-PC]", "values": [{"measurement": "PGE2 release", "setting": "[2]; [6]", "result": "had no effect"}]}
{"compound": "CCCCCCCCCCCCCCCCCCOC[C@H](COP(=O)([O-])OCC[N+](C)(C)C)OC(C)=O", "note": "[PAF-18]", "values": [{"measurement": "PGE2 release into the conditioned media", "setting": "[2]; 30 min, 37° C.", "result": "concentration-dependent increases"}, {"measurement": "concentration giving peak PGE2 release", "setting": "[2]; 30 min", "result": 0.1, "unit": "µM"}]}
{"compound": "phosphatidylcholine [PC]", "values": [{"measurement": "PGE2 release", "setting": "[2]; [6]", "result": "had no effect"}]}
